The values that follow come from publication PMC7737769, “Pharmacological inhibition of syntenin PDZ2 domain impairs breast cancer cell activities and exosome loading with syndecan and EpCAM cargo” (Journal of Extracellular Vesicles, 2020).

The structures appear in SMILES notation. Read-outs that look alike come from different tables or passages of the source.

Experiment [1] deals with T1, syntenin‐PDZ tandem plus C‐terminal domain (Homo sapiens, UniProt O00560).
T1 construct: made in house; host or cells: Biotin XCell F' E. coli cells
T1 sequence (O00560 107-298): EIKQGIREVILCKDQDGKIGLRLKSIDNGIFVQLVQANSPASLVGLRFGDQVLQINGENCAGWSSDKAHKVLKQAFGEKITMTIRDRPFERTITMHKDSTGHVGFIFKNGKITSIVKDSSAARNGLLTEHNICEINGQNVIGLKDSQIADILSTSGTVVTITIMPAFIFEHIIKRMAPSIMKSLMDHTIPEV
In words: Surface plasmon resonance (BIAcore), syntenin PDZ tandem plus C-terminal domain. In kind it is binding. As for the experimental part: (§1) All SPR experiments were conducted with a BIAcore T200 instrument (GE Healthcare), at 25°C. A total of 8000 resonance units (RU) of biotinylated ligands (N‐terminal 6xHis tagged biotinylated syntenin tandem, syntenin tandem with C terminus, GRASP55 tandem or GST as control) were immobilized on a streptavidin‐sensor chip (GE Healthcare). Analytes (C58 and SyntOFF compounds) were perfused at 30 µl per min in running buffer (10 mM HEPES pH 7.4, 150 mM NaCl, 0.005% Tween20) at different concentrations. The reference channel was N‐terminal 6xHis tagged biotinylated GST protein. The injection time was 240 s, long enough for the sensorgrams to reach equilibrium, and the dissociation time was 240 s. To carry out these SPR experiments, we employed the method known as ‘single‐cycle kinetics’ described in 2006 by Karlsson and co‐workers (Karlsson, Katsamba, Nordin, Pol, & Myszka, 2006). It consists in injecting the analyte at increasing concentrations, without regeneration steps between each sample injection to avoid that folded‐proteins can be damaged after regeneration steps. Equilibrium dissociation constants (KD) were calculated by fitting the data to a simple Langmuir binding isotherm using GraphPad Prism. For determination of the apparent KD, signals obtained at equilibrium were plotted as a function of compound concentration. […]

For another experiment, the system named is MCF‐7 cells. Briefly: Wound-healing (migration) assay, MCF-7. In kind it is cell-based. Conditions: MCF-7, 100 µM, 24 h. As for the experimental part: For migration assays, cells were treated with 1 ng/ml of mitomycin (Sigma M4287) overnight to inhibit cell division. Treated cells were plated in Ibidi culture‐inserts (Ibidi Cat‐80206) for 12 h to reach 90%–95% of confluence with or without compounds (100 µM). A wound was created by removing inserts from the dishes. Medium with or without compounds (100 µM) was refreshed to remove dead cells and the cells were observed under an inverted light microscope (Leica SP2) equipped with a camera. Images were taken by MetaMorph software every 10 min for 24 h. Measurements of cell velocity were calculated using the MetaMorph software.

Experiment [2] addresses T2, syntenin‐PDZ tandem (without C‐terminal domain) (Homo sapiens, UniProt O00560).
T2 construct: made in house; host or cells: Biotin XCell F' E. coli cells
T2 sequence (O00560 107-275): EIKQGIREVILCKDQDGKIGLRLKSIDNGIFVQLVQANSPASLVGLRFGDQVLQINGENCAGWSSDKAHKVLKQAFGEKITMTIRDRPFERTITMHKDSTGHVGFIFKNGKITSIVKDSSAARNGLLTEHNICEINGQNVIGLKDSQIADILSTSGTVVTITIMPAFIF
Briefly: Surface plasmon resonance (BIAcore), syntenin PDZ tandem. The class given is binding. Conditions: compound in PBS, read-out: apparent KD, syntenin‐PDZ tandem (without C‐terminal domain). The procedure:
as §1
In general terms: SPR reads the build-up and loss of mass on a sensor chip optically.

The next experiment concerns T3, Erbin‐Erbb2 complex.
T3 construct: human Erbin PDZ domain; made in house; host or cells: E. coli BL21 (DE3)
In words: HTRF assay, Erbin-ERBB2 interaction. The class given is biochemical, human. The note with it: 400µM compound; Figure 1c. As for the experimental part:
HTRF assays were performed in white 96Well Small VolumeHiBase Polystyrene Microplates (Greiner) with a total working volume of […], as described previously (Milhas et al., 2016). Briefly, compounds were firstly dispensed into the wells at 400 µM for the primary screen or with serial DMSO dilutions for IC50 measurement assays. Primary screening assays have been performed in monoplicate while IC50 measurements were performed in triplicates. All HTRF reagents were purchased from CisBio Bioassays and reconstituted according to the supplier protocols. The plates were spun for 3 min at 500 × g and then incubated at 4°C for 16 h. The HTRF signals were recorded on a POLAR star Omega plate reader (BMG Labtech) with an excitation filter at 337 nm and fluorescence wavelength measurement at 620 and 665 nm, an integration delay of 60 µs and an integration time of 400 µs. Results were analysed with a two‐wavelength signal ratio: [intensity (665 nm)/intensity (620 nm)] × 10^4. Percentage of inhibition was calculated using the following equation: % inhibition = [(compound signal)–(min signal)]/[(max signal)–(min signal)] × 100, where ‘max signal’ is the signal ratio with the compound vehicle alone (DMSO) and ‘min signal’ the signal ratio without protein B. For IC50 measurements, values were normalized and fitted with Prism (GraphPad software) using the following equation: Y = 100/(1+((X/ IC50)ˆHill slope)).
The search strategy for PDZ2 syntenin inhibitors was based on the PDZ targeted library developed from Enamine compound collection. The PDZ targeted library was developed to cover virtually all PDZ domains. Consequently, to create the syntenin PDZ2 focused library we used two independent paths: docking of the PDZ targeted library against structures of syntenin PDZ2 available in Protein Data Bank and a random selection from the PDZ targeted library. The docking has produced 21 virtual hits, which were added to 118 randomly selected compounds (10% of the pan PDZ library). The resultant set of 139 compounds, syntenin PDZ library was subjected to experimental validation. The primary screen was performed at 400µM using a previously validated Homogeneous Time Resolved Fluorescence (HTRF) assay (Milhas et al., 2016). HTRF is based on Fluorescence Resonance Energy Transfer (FRET) between two fluorescent reagents. In the present case, Anti‐GST‐Terbium antibody and streptavidin‐bound Dynamic2 were used as donor and acceptor respectively. Interactions between GST PDZ‐fusion proteins and biotinylated peptides containing PDZ binding motifs were challenged with the potential inhibitors. In parallel, control experiments were performed with a biotinylated‐GST to verify that compounds were not interfering with the FRET signal in a non‐specific manner. To identify inhibitors of syntenin PDZ interactions, we tested for the effect of the 139 compounds on syntenin‐SDC2 and syntenin‐Frizzled7 complexes (Figure 1a; Table S1). When the HTRF signal dropped below 0.9, inhibition was considered as effective. […] Noteworthy, these compounds had no effect on other PDZ complexes like GRASP55‐JAM‐B or GRASP55‐JAM‐C and Erbin‐Erbb2 or Erbin‐P0071 (Figure 1c).
On the technique in general: Time-resolved FRET reads energy transfer from a long-lived donor to a nearby acceptor.

For the molecule `CC(C)[C@H](NC(=O)CSc1ccc(Cl)cc1)C(=O)O` [Compound C58], the Kd in experiment [1] (compound in PBS, read-out: apparent KD, syntenin‐PDZ tandem plus C‐terminal domain) stood at 886 µM; in experiment [2] it was 1030 µM. The “cell migration (wound closure)” value in the experiment on MCF‐7 cells was “decreases”. The “GST-Erbin ERBB2 (signal ratio)” value in the experiment with Erbin‐Erbb2 complex was 1.01.

Turning to `CC(C)[C@H](NC(=O)CCSc1ccc(Cl)cc1)C(=O)O` [SyntOFF, (S)‐2‐(3‐(4‐chlorophenylthio)propanamido)‐3‐methylbutanoic acid], in experiment [1] (DMSO as vehicle, read-out: KD, syntenin‐PDZ tandem plus C‐terminal domain), the Kd was found to be 130 µM.
